Patent US20260174875A1 (Novo Nordisk A/S, priority 2023, published 2026)
Numbered stars: 1 amine (or outer) side, 2 acyl side, 3 side chain; on linkers, the order of the positions; unused ones are H or OH. Square brackets hold non-standard residues; d marks the D form. Side chains are listed from the residue outwards. * marks the point of attachment. C18 diacid = O=C(O)CCCCCCCCCCCCCCCCC(=O)*; γGlu = O=C(O)[C@H](CCC(=O)[*:2])N[*:1]; AEEA = NCCOCCOCC(=O)O; Aib = CC(C)(N)C(=O)O

biological target: T1, human GLP-1 receptor (hGLP-1R) (Homo sapiens, UniProt P43220); assay: GLP-1 receptor assay, method A (CRE-luciferase reporter, BHK cells); assay type: cell-based; conditions: hGLP-1R Potency, 1% HSA, EC50, method A, in the presence of 1% HSA
T1 construct: expressed in transfected cells
Method: (§1) To assess how the activation of the receptors is potentially influenced by the presence of human serum albumin (HSA), the in vitro assays were performed in the absence of HSA and presence of 1% (w/v) HSA.
Cells at approximately 80-90% confluence were washed once in PBS (Gibco 14190-094) and loosened from the cell flasks with Versene (Gibco, 15040-033). […] Cells were aliquoted and stored at −180° C. until use.
(§2) The assay buffer consisted of DMEM without phenol red (Gibco, 11880-028) supplemented with 1× GlutaMAX (Gibco, 35050-038), 10 mM HEPES (Gibco, 15630-056), 1% (w/v) ovalbumin (Sigma, A5503) and 0.1% (v/v) Pluronic F-68 (Gibco, 24040-032) either with HSA or without HSA (Sigma, A9511).
Frozen stocks of hGLP-1R BHK CRE-Luc cells were thawed in a 37° C. water bath, washed once in PBS (Gibco 14190-094) and diluted to 1.5×10^6 (1.5E+6) cells/mL in assay buffer with or without 2% (w/v) HSA (Sigma, A9511). […] The assay plates were incubated for 3 hours at 37° C. in 5% CO2, left at room temperature for 5 minutes after which 100 μL steadylite Plus™ (PerkinElmer/Revvity, 6066759) was added to each well. Plates were sealed and incubated at room temperature with gentle shaking for 30 minutes while protected from light. Luminescence was detected on a luminescence plate reader e.g., a Synergy 2 (BioTek).

T1 sequence (P43220 24-463): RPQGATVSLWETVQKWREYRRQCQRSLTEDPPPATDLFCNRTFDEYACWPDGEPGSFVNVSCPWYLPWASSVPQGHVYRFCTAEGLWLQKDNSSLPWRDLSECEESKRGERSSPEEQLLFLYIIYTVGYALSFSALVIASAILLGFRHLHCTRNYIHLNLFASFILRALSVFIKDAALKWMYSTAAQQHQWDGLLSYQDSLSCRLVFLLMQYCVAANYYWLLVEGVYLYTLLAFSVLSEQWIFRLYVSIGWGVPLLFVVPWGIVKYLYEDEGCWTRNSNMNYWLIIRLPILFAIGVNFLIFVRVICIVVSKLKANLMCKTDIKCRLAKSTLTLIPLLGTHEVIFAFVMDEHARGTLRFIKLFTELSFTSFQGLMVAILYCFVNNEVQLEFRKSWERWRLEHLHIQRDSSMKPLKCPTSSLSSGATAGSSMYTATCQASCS

Row | Substance | EC50
1 | H[Aib]HGTFTSDYSILLEEQAAREFIEWLLAGGPSGGEASHLSTAQTQRLSAELHK([AEEA-AEEA-γGlu-C18 diacid])LATLPRTETGSGSP-NH2 [Compound 75] | 0.0252 nM
2 | H[Aib]HGTFTSDYSILLEEQAAREFIEWLLAGGPSK([AEEA-AEEA-γGlu-C18 diacid])GALAQTLGTNEASHLSTAQTQRLSAELHELATLPRTETGSGSP-NH2 [Compound 45] | 0.112 nM
3 | H[Aib]HGTFTSDYSILLEEQAAREFIEWLLAGGPSK([AEEA-AEEA-γGlu-C18 diacid])GAPPPSGGGASELSTAALGRLSAELHRLATLPRTETGSGSP-NH2 [Compound 86] | 0.13 nM
4 | H[Aib]HGTFTSDYSILLEEQAAREFIEWLLAGGPSK([AEEA-AEEA-γGlu-C18 diacid])GEASQLSTAALGRLSAELHRLADLPRTETGSGSP-NH2 [Compound 43] | 0.0415 nM

same assay, conditions: hGLP-1R Potency, no HSA, EC50, method A, absence of HSA

Row | Substance | EC50
5 | H[Aib]HGTFTSDYSILLEEQAAREFIEWLLAGGPSK([AEEA-AEEA-γGlu-C18 diacid])GEASQLSTAALGRLSAELHRLADLPRTETGSGSP-NH2 [Compound 43] | 0.00431 nM

same assay, conditions: method A, absence of HSA; read-out: hGLP-1R Potency, no HSA, EC50

Row | Substance | EC50
6 | H[Aib]HGTFTSDYSILLEEQAAREFIEWLLAGGPSGGEASHLSTAQTQRLSAELHK([AEEA-AEEA-γGlu-C18 diacid])LATLPRTETGSGSP-NH2 [Compound 75] | 0.00366 nM
7 | H[Aib]HGTFTSDYSILLEEQAAREFIEWLLAGGPSK([AEEA-AEEA-γGlu-C18 diacid])GALAQTLGTNEASHLSTAQTQRLSAELHELATLPRTETGSGSP-NH2 [Compound 45] | 0.00478 nM
8 | H[Aib]HGTFTSDYSILLEEQAAREFIEWLLAGGPSK([AEEA-AEEA-γGlu-C18 diacid])GAPPPSGGGASELSTAALGRLSAELHRLATLPRTETGSGSP-NH2 [Compound 86] | 0.00669 nM

biological target: T2, human amylin receptor (hAMYR3) (Homo sapiens, UniProt O60896+P30988); assay: Amylin receptor assay, method A (CRE-luciferase reporter, BHK cells); assay type: cell-based; conditions: hAMYR3 Potency, 1% HSA, EC50, method A, in the presence of 1% HSA
T2 construct: host or cells: BHK cells (Hollex-1 line expressing hCTR(a) and CRE-Luc), further transfected with human RAMP3
Method: as §1
It is thus possible to measure hAMYR3 activity using a CRE-luciferase reporter gene introduced into Baby Hamster Kidney (BHK) cells co-expressing the hAMYR3.
The cell line was further transfected with human receptor modifying protein 3 (RAMP3) using standard methods.
After centrifugation, the cell pellet was resuspended and diluted to approximately 2.5-4.0×10^6 (2.5E+6 to 4.0E+6) cells/mL in Recovery™ Cell Culture Freezing Medium (Gibco, 12648-010). Cells were aliquoted and stored at −180° C. until use.
as §2, with “15630-056) and” for “15630-056),”, “either with or without” for “and”, “24040-032) and” for “24040-032)”, “with” for “with HSA”
The plate was incubated over night at 37° C. in 5% CO2. […] Luminescence was detected on a luminescence plate reader e.g., a Synergy 2 (BioTek).

T2 sequence (P30988 25-474): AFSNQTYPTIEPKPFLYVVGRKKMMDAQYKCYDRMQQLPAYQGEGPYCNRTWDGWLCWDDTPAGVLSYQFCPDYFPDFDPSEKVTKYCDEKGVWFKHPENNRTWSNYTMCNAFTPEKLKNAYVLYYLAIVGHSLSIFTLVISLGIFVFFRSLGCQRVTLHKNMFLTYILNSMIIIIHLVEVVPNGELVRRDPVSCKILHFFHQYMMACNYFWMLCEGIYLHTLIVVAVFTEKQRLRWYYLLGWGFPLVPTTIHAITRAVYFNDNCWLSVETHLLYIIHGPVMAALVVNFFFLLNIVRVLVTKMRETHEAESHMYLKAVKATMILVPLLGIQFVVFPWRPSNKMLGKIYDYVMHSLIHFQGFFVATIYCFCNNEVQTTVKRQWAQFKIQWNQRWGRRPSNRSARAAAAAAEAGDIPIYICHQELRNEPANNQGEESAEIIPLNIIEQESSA
T2 sequence (O60896 24-148): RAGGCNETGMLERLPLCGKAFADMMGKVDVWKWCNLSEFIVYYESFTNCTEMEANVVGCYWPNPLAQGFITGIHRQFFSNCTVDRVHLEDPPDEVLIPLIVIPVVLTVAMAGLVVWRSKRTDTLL

Row | Substance | EC50
9 | H[Aib]HGTFTSDYSILLEEQAAREFIEWLLAGGPSGGEASHLSTAQTQRLSAELHK([AEEA-AEEA-γGlu-C18 diacid])LATLPRTETGSGSP-NH2 [Compound 75] | 0.11 nM
10 | H[Aib]HGTFTSDYSILLEEQAAREFIEWLLAGGPSK([AEEA-AEEA-γGlu-C18 diacid])GALAQTLGTNEASHLSTAQTQRLSAELHELATLPRTETGSGSP-NH2 [Compound 45] | 0.0624 nM
11 | H[Aib]HGTFTSDYSILLEEQAAREFIEWLLAGGPSK([AEEA-AEEA-γGlu-C18 diacid])GAPPPSGGGASELSTAALGRLSAELHRLATLPRTETGSGSP-NH2 [Compound 86] | 0.0584 nM
12 | H[Aib]HGTFTSDYSILLEEQAAREFIEWLLAGGPSK([AEEA-AEEA-γGlu-C18 diacid])GEASQLSTAALGRLSAELHRLADLPRTETGSGSP-NH2 [Compound 43] | 0.0565 nM

same assay, conditions: hAMYR3 Potency, no HSA, EC50, method A, absence of HSA

Row | Substance | EC50
13 | H[Aib]HGTFTSDYSILLEEQAAREFIEWLLAGGPSK([AEEA-AEEA-γGlu-C18 diacid])GEASQLSTAALGRLSAELHRLADLPRTETGSGSP-NH2 [Compound 43] | 0.00313 nM

same assay, conditions: method A, absence of HSA; read-out: hAMYR3 Potency, no HSA, EC50

Row | Substance | EC50
14 | H[Aib]HGTFTSDYSILLEEQAAREFIEWLLAGGPSGGEASHLSTAQTQRLSAELHK([AEEA-AEEA-γGlu-C18 diacid])LATLPRTETGSGSP-NH2 [Compound 75] | 0.00249 nM
15 | H[Aib]HGTFTSDYSILLEEQAAREFIEWLLAGGPSK([AEEA-AEEA-γGlu-C18 diacid])GALAQTLGTNEASHLSTAQTQRLSAELHELATLPRTETGSGSP-NH2 [Compound 45] | 0.00469 nM
16 | H[Aib]HGTFTSDYSILLEEQAAREFIEWLLAGGPSK([AEEA-AEEA-γGlu-C18 diacid])GAPPPSGGGASELSTAALGRLSAELHRLATLPRTETGSGSP-NH2 [Compound 86] | 0.00331 nM

biological target: T3, human GIP receptor (hGIPR) (Homo sapiens, UniProt P48546); assay: GIP receptor assay, method A (CRE-luciferase reporter, BHK cells); assay type: cell-based; conditions: hGIPR Potency, 1% HSA, EC50, method A, in the presence of 1% HSA
T3 construct: expressed in transfected cells
T3 sequence (P48546 22-466): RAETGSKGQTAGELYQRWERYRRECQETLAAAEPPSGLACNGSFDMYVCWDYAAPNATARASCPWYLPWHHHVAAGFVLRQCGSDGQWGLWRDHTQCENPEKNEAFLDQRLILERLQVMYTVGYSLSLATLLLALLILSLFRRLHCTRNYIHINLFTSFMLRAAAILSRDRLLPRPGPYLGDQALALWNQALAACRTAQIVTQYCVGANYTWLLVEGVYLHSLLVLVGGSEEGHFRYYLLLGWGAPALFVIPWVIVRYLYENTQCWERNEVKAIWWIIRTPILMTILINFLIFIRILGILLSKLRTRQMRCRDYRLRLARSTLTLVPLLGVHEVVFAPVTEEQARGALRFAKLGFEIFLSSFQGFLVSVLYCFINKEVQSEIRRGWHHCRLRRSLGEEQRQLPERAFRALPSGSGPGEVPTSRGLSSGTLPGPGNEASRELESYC
Method: To assess how the activation of the receptors is potentially influenced by the presence of human serum albumin (HSA), the in vitro assays were performed in the absence of HSA and presence of 1% (w/v) HSA. Unless stated otherwise the reference to the “GIP receptor assay as described in Example 4” throughout the specification shall refer to the described herein assay procedure method A (hGIPR assay) in the absence of HSA.
Activation of the human GIP receptor leads to increased intra-cellular concentrations of cyclic AMP (cAMP) and the consequent transcription activation from promoters containing multiple copies of the cAMP response element (CRE). It is thus possible to measure GIP receptor activity using a CRE-luciferase reporter gene introduced into Baby Hamster Kidney (BHK) cells co-expressing the human GIP receptor.
Cells at about 80-90% confluency were washed once with PBS (Gibco 14190-094) and detached from the cell flasks with Versene (Gibco, 15040-066). After centrifugation, the cells were counted, resuspended and diluted to approximately 1.5-3.0×10^6 (1.5E+6 to 3.0E+6) cells/mL in Recovery Cell Culture Freezing Medium (Gibco, 12648-010) and stored at −180° C. in suitable aliquots until use.
as §2
On the day before the assay hGIPR BHK Cre-Luc cells were thawed and plated out in 96 well Culture Plates (PerkinElmer/Revvity, 6005680) at 5.0×10^3 (5.0E+3) cells/well in growth medium as described above. The plates were then incubated for 21-23 hours at 37° C. with 5% CO2. On the day of the assay GLP-1-/GIP-/amylin-receptor tri-agonists or reference compounds were diluted in assay buffer using a 7-point, 10-fold titration plus a blank (absence of compound). Each compound was diluted and tested in duplicates in each experiment. In the plates containing the cells the growth medium was removed, and cells were washed twice with 100 μL PBS (Gibco 14190-094). 50 μL of the test compound dilutions were added to the plates containing cells preceded by 50 μL assay buffer with or without 2% (w/v) HSA (Sigma, A9511). The cell plates were incubated for 3 hours in a 5% CO2 incubator at 37° C. The plates were then transferred to room temperature followed by addition of 100 μL steadylite Plus™ (PerkinElmer/Revvity, 6066759). The plates were sealed and shaken for 30 minutes at room temperature while protected from light. Finally, luminescence (as an indicator of receptor activation) was measured on a Mithras reader (Berthold Technologies, DE). The EC50-values [pM] were calculated by non-linear curve fitting applying a four-parameter logistic model (Hill slope=“shared value for all datasets”) using GraphPad Prism (GraphPad Software, Boston, MA, USA).

Row | Substance | EC50
17 | H[Aib]HGTFTSDYSILLEEQAAREFIEWLLAGGPSGGEASHLSTAQTQRLSAELHK([AEEA-AEEA-γGlu-C18 diacid])LATLPRTETGSGSP-NH2 [Compound 75] | 11.9 pM
18 | H[Aib]HGTFTSDYSILLEEQAAREFIEWLLAGGPSK([AEEA-AEEA-γGlu-C18 diacid])GALAQTLGTNEASHLSTAQTQRLSAELHELATLPRTETGSGSP-NH2 [Compound 45] | 132 pM
19 | H[Aib]HGTFTSDYSILLEEQAAREFIEWLLAGGPSK([AEEA-AEEA-γGlu-C18 diacid])GAPPPSGGGASELSTAALGRLSAELHRLATLPRTETGSGSP-NH2 [Compound 86] | 122 pM
20 | H[Aib]HGTFTSDYSILLEEQAAREFIEWLLAGGPSK([AEEA-AEEA-γGlu-C18 diacid])GEASQLSTAALGRLSAELHRLADLPRTETGSGSP-NH2 [Compound 43] | 186 pM

same assay, conditions: hGIPR Potency, no HSA, EC50, method A, absence of HSA

Row | Substance | EC50
21 | H[Aib]HGTFTSDYSILLEEQAAREFIEWLLAGGPSK([AEEA-AEEA-γGlu-C18 diacid])GEASQLSTAALGRLSAELHRLADLPRTETGSGSP-NH2 [Compound 43] | 4.38 pM

same assay, conditions: method A, absence of HSA; read-out: hGIPR Potency, no HSA, EC50

Row | Substance | EC50
22 | H[Aib]HGTFTSDYSILLEEQAAREFIEWLLAGGPSGGEASHLSTAQTQRLSAELHK([AEEA-AEEA-γGlu-C18 diacid])LATLPRTETGSGSP-NH2 [Compound 75] | 2.65 pM
23 | H[Aib]HGTFTSDYSILLEEQAAREFIEWLLAGGPSK([AEEA-AEEA-γGlu-C18 diacid])GALAQTLGTNEASHLSTAQTQRLSAELHELATLPRTETGSGSP-NH2 [Compound 45] | 2.63 pM
24 | H[Aib]HGTFTSDYSILLEEQAAREFIEWLLAGGPSK([AEEA-AEEA-γGlu-C18 diacid])GAPPPSGGGASELSTAALGRLSAELHRLATLPRTETGSGSP-NH2 [Compound 86] | 5.11 pM
